This is an account of results in ChEMBL document CHEMBL1201862, “PubChem BioAssay data set” (2004).

What all share (experiment): inhibition of tumour cell growth, NCI panel, 48 h
Experiment [1] deals with LOX IMVI.
Experiment [2] relates to SNB-19.
In experiment [3] the test system is MDA-MB-231.
Experiment [4] has as its system SK-MEL-5.
Experiment [5] has as its system HL-60.
The subject of experiment [6] is SK-OV-3.
The test system of experiment [7] is K562.
The subject of experiment [8] is Malme-3M.
Experiment [9] has as its system UO-31.
For experiment [10], the system named is TK-10.
The test system of experiment [11] is NCI/ADR-RES.
In experiment [12] the test system is Hs-578T.
For experiment [13], the system named is SN12C.
The subject of experiment [14] is OVCAR-3.
In experiment [15] the test system is KM12.
In experiment [16] the test system is SNB-75.
The subject of experiment [17] is T47D.
The subject of experiment [18] is ACHN.
In experiment [19] the test system is SF-539.

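Method: 48-hour compound exposure of cells in 96-well plates, five concentrations, linear interpolation of endpoints. At the GI50, growth is halved.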 The source made the active and inactive calls. No stated cut-off is given here; in the data, active = GI50 up to about 1.1 µM and inactive = higher.

On to `O=C1c2ccccc2C(=O)c2oc(Br)cc21`, for which the GI50 is 0.429 µM (active) in experiment [1]; 1.5 µM (inactive) in [2]; 2.65 µM (inactive) in [3]; 0.144 µM (active) in experiment [4]; 0.378 µM (active) in experiment [5]; 2.14 µM (inactive) in experiment [6]. The GI50 in [7] was 2.12 µM (inactive); in experiment [8], 0.127 µM (active); in experiment [9], 1.47 µM (inactive); in experiment [10], 2.9 µM (inactive); in experiment [11], 2.22 µM (inactive); in experiment [12], 0.327 µM (active). The GI50 in experiment [13] was 0.953 µM (active); in [14], 1.02 µM (active); in [15] it was 1.23 µM (inactive); in experiment [16], 0.256 µM (active); in experiment [17], 1.73 µM (inactive); in [18] it was 1.78 µM (inactive). For the same compound, the GI50 in [19] is 0.684 µM (active).

Take `COc1cc(Oc2nc3ccc(C(F)(F)F)cc3nc2-c2ccccc2)cc(OC)c1OC`: the GI50 in experiment [1] is 18.4 µM (inactive); in [3], 23 µM (inactive); in experiment [4], 14.5 µM (inactive); in [5] it was 31.8 µM (inactive); in [6] it was 12.4 µM (inactive); in experiment [7], 40.5 µM (inactive). Further, the GI50 in experiment [8] was 87.9 µM (inactive); in [9], > 100 µM (inactive); in experiment [10], 30.1 µM (inactive); in [11], > 100 µM (inactive); in experiment [12], 21.9 µM (inactive); in experiment [13], 37 µM (inactive). Besides, the GI50 in experiment [14] is 27.5 µM (inactive); in experiment [15], 66.2 µM (inactive); in [16] it was 8.75 µM (inactive); in [17], 54.7 µM (inactive); in experiment [18] it was 11.6 µM (inactive); in [19] it was 19.7 µM (inactive).

With `Cc1c(-c2ccccc2)c(C#N)c2nnn(-c3cccc(Cl)c3)c(=O)n12`, the GI50 in experiment [1] is 87.1 µM (inactive); in experiment [3], 25.1 µM (inactive); in experiment [4], 71.1 µM (inactive); in experiment [5], > 100 µM (inactive); in experiment [6], 37.8 µM (inactive); in experiment [7], 50.5 µM (inactive). In addition, the GI50 in experiment [8] is 87.5 µM (inactive); in [10], > 100 µM (inactive); in [11], > 100 µM (inactive); in experiment [12], > 100 µM (inactive); in experiment [13] it was 71.8 µM (inactive); in experiment [14], 43 µM (inactive). Besides, the GI50 in experiment [15] is 55.8 µM (inactive); in [16] it was 31.2 µM (inactive); in experiment [17], 60.5 µM (inactive); in experiment [18], 53.2 µM (inactive); in experiment [19], 32.9 µM (inactive).

Regarding `O=C1c2ccccc2-c2ccc(NC(=O)C3CCCCC3C(=O)O)cc21` (stereo not given), the GI50 in [1], in experiment [2], in experiment [3], in [4], in experiment [5] and in experiment [6] was > 100 µM (inactive) each time. The GI50 in experiment [7], in [8], in [9], in [10], in experiment [11] and in [12] was > 100 µM (inactive) throughout. The GI50 in experiment [13] is 96.4 µM (inactive); in experiment [14], > 100 µM (inactive); in [15], > 100 µM (inactive); in [16] it was > 100 µM (inactive); in [17], > 100 µM (inactive); in experiment [18] it was > 100 µM (inactive). In experiment [19], the GI50 is > 100 µM (inactive).

Take `OC(c1cc(C23CC4CC(CC(C4)C2)C3)nc2c(Cl)cc(Cl)cc12)C1CCCCN1` (stereo not given): the GI50 in [1] is 1.49 µM (inactive); in [2], 1.6 µM (inactive); in [3] it was 1.82 µM (inactive); in experiment [4], 2.63 µM (inactive); in experiment [5], 2.11 µM (inactive); in [6], 1.77 µM (inactive). Also, the GI50 in experiment [7] is 1.51 µM (inactive); in experiment [8] it was 1.81 µM (inactive); in experiment [9] it was 0.204 µM (active); in [10], 1.84 µM (inactive); in [11], 2.06 µM (inactive); in [12] it was 2.03 µM (inactive). Besides, the GI50 in [13] is 1.62 µM (inactive); in [14] it was 1.78 µM (inactive); in [15], 1.67 µM (inactive); in [16], 1.73 µM (inactive); in experiment [17], 1.79 µM (inactive); in experiment [18] it was 1.69 µM (inactive). Moreover, in experiment [19], the GI50 is 2.13 µM (inactive).

On to `Nn1c(S)nnc1C12CC3CC(CC(C3)C1)C2`, for which the GI50 in experiment [1], in experiment [2], in experiment [3], in [4], in experiment [5] and in [6] was > 100 µM (inactive) in each case. Moreover, the GI50 in [7], in experiment [8], in experiment [9], in [10], in experiment [11] and in [12] was > 100 µM (inactive) throughout. The GI50 in [13], in experiment [14], in experiment [15], in [16], in experiment [17] and in experiment [18] was > 100 µM (inactive) each time. Besides, the GI50 in experiment [19] was > 100 µM (inactive).

As for `CC#CC#C/C(=C/C=CC(=O)OC)SC`, the GI50 in experiment [1], in experiment [3], in experiment [4], in experiment [5], in experiment [6] and in experiment [7] was > 100 µM (inactive) throughout. The GI50 in [8], in experiment [10], in experiment [11], in experiment [12], in experiment [13] and in experiment [15] was > 100 µM (inactive) in each case. In addition, the figures for the GI50 in [16], in experiment [17] and in experiment [19] were 39.4 µM (inactive), > 100 µM (inactive) and > 100 µM (inactive), respectively.

Consider `CC(O)c1cc2c(s1)C(=O)c1c(C(C)O)csc1C2=O` (stereo not given), for which the GI50 was 0.075 µM (active) in experiment [1]; 0.33 µM (active) in experiment [2]; 0.063 µM (active) in experiment [3]; 0.0233 µM (active) in [4]; 0.0113 µM (active) in [5]; 0.401 µM (active) in experiment [6]. Also, the GI50 in experiment [7] is 0.139 µM (active); in experiment [8], 0.0329 µM (active); in [9], 0.316 µM (active); in [10], 0.544 µM (active); in experiment [11], 0.146 µM (active); in experiment [12] it was 0.318 µM (active). For the same compound, the GI50 in [13] was 0.138 µM (active); in experiment [14] it was 0.0342 µM (active); in experiment [15], 0.249 µM (active); in experiment [16] it was 0.316 µM (active); in experiment [17], 0.167 µM (active); in experiment [18], 0.261 µM (active). Moreover, the GI50 in experiment [19] is 0.21 µM (active).
